Source: patent US7090863B2, “Hypocholesterolemic composition and methods of use” (Inpharma S.A., priority 2001, dated 2006)

Test system: normocholesterolemic healthy male subjects
Experiment: Example 1 first phase: plasma lipoprotein variations after 15 days of soy bean proteins, β-sitosterol or their combination
Format: in vivo, human
Settings: in rapport to post-seven days of stabilisation diet values
From the text: For the first phase, 18 normocholesterolemic healthy male subjects (mean age: 32.5±8 years) have been enrolled. All subjects followed a stabilisation diet period of seven days during which they received some advises concerning their nourishment (according to the American Heart Association recommends), without any radical modification of their diet customs. A dietician monitored the patient dietary pattern trough the “Seven days questionnaire” for all the experimental duration. Patients were imposed to stop any nutritional supplementation. After this period, all subjects ingested for fifteen days 400 mg β-sitosterol two times/day (6 subjects), 1600 mg soy bean proteins two times/day (6 subjects) or a low dosage product containing soy proteins supplemented in β-sitosterol in a rapport 4:1 (offered and patented by Inpharma SA, Lugano, Switzerland), 2 g two times/day (6 subjects).
The hematochemistry measurements have been carried out on venous blood coming from antecubital harm vein, after 12 fasting hours after the stabilisation diet period and at the end. Blood has been collected into tubes […] heparin or other anticoagulant, plasma was immediately separated by high-speed centrifugation at 3500×g for twenty minutes. TC, HDL-C, TG, Glucose, and Uric acid have been determined with standardised enzymatic […] methods (Gaddi et al., 2001). LDL-C plasma level has been estimated with the Friedewald's formula [LDL-C=TC-(TG/5+HDL-C)], for TG<350 mg/dL.
Data have been sampled in a specific database and analysed with the help of the SPSS 8.0 statistical software. A normality Shapiro-Wilks test has been carried out on all the tested variables, followed by ANOVA and two-tails t-test for paired samples, when possible, and by a post-hoc Tukey's test. Percentages have been compared with the Fisher's exact test. Correlation degree between baseline plasma lipid levels and reduction obtained with the treatment were estimated with a Pearson's bivariate correlation test followed by linear regression. For all tests a “p” level less than 0.05 has been considered as significant.

CC[C@H](CC[C@@H](C)[C@H]1CC[C@H]2[C@@H]3CC=C4C[C@@H](O)CC[C@]4(C)[C@H]3CC[C@]12C)C(C)C [β-sitosterol]
Apolipoprotein Al variation: −0.1% | Apolipoprotein B variation: −0.3% | High Density Lipoproteins variation: +0.3% | Low Density Lipoproteins variation: −4.9% | Total Cholesterol variation: −3.2% | Tryglycerides variation: −0.1% | Very Low Density Lipoproteins variation: −0.2%
